According to patent US9303069B2, “Peptides for treating cancer” (University of Mississippi Medical Center, priority 2014, dated 2016):
Read-outs that look alike come from different tables or passages of the source.

How the values were obtained:
[1] = tested on: SKOV3 cells; format: cell-based, human; conditions: then cisplatin 24 hours, read-out: IC50 of cisplatin (survival)
Experimental: Thus, a peptide (hereafter IRIS peptide) composed of a cell/nucleus penetrating signal (FIG. 26) fused to BRCA1-IRIS intron 11 (FIG. 26) was synthesized. Equal numbers of HOSE, HOSE/IRIS, SKOV3, OVCAR3, OVCAR420 and OV-90 cells were grown in the presence of increasing concentrations of IRIS peptide for 48 hours.
To investigate the contribution of ErbB2 and TrkB to BRCA1-IRIS-induced cisplatin resistance, equal numbers of SKOV3 cells were either depleted from BRCA1-IRIS, ErbB2 or TrkB using specific siRNAs for 48 hours before they were (i) exposed to increasing concentrations of cisplatin for another 24 hours or (ii) exposed to IRIS peptide, ErbB2 inhibitor (CP-724714), TrkB inhibitor (K252a) or both for 24 hours, before they were exposed to increasing concentrations of cisplatin for another 24 hours.
Cell viability measurement. Cell viability under different experimental conditions was determined using the MTS assay […]. Briefly, SKOV3, OVACAR3, HOSE and HOSE/IRIS cells (2.5×10^4 cells per well) were seeded in 96 well plates and incubated overnight at 37° C. in 10% humidified CO2 atmosphere in varying concentrations of IRIS peptide, or inhibitors of ErbB2 (CP-724714), EGFR (Erlotinib), TrkB (K252a), JNK (SP600125), p38 (SB203580), ERK (PD98059) and PI3′K/AKT (LY294002) inhibitors for 24 hours at 37° C. Cell Titer 96® Aqueous (Promega, Madison, Wis., USA) was used to measure viability following manufactures instructions. Cell viability (%) was expressed as a ratio to control cells×100. Growth inhibition was also determined by manually counting cells in five different microscopic fields. Change in cell numbers (fold) was expressed as a ratio to control cells×100. All experiments were done in at least triplicates, three different times. * is p≦0.05, ** is p≦0.001 and *** is p≦0.0001.
Transfections of siRNA. siRNAs for human ErbB2 and TrkB were purchased from Ambion and Santa Cruz Biotechnology, USA. Custom synthesized siRNA against BRCA1 IRIS was used. siRNA against luciferase gene was used as the negative control. Sub-confluent cells were transfected in 6- or 96-well plates with ErbB2 (100 nM), TrkB (100 nM), BRCA1 IRIS (200 nM) or control siRNA using Oligofectamine™ reagent (GibcoBRL Inc, USA) following the instructions of the manufacturer. Protein expression was tested by Western blot after 72 hours of siRNA transfection. Cell viability was evaluated by MTS or by manual counting after 72 hours of siRNA exposure alone or in combination with cisplatin exposure (for an additional 24 hours).

[2] = tested on: BRCA1-IRIS; experiment: BRCA1-IRIS expression in ovarian cells (Western analysis); format: cell-based, human; conditions: 10, 20 or 30 μM of cisplatin for 24 hours
From the text: At these low concentrations of cisplatin BRCA1-IRIS expression was induced in HOSE cells and remained high in HOSE/IRIS cells (FIG. 17). […] Cell lines expressing the lowest levels of BRCA1-IRIS (i.e.

[3] = tested on: BRCA1-IRIS, TrkB, ErbB2, AKT, p-AKT, p-FOXO, Cyclin D1, Bcl-2 and survivin; experiment: Expression of growth and survival proteins in HOSE and HOSE/IRIS cells (Western); format: cell-based, human; conditions: IRIS peptide 5 μM, cisplatin 10 μM, combination 2.5 μM IRIS peptide + 5 μM cisplatin
From the text: HOSE cells overexpressing IRIS show a higher degree of resistance to cisplatin than HOSE cells (compare blue to black line in FIG. 30).

[4] = tested on: SKOV3 tumors; experiment: In vivo efficacy on established SKOV3 tumors; set-up: species or system mice; conditions: day 16; cisplatin 5 mg/kg i.p., IRIS peptide 10 mg/kg i.t., every third day, four times
Experimental: Further, to determine whether IRIS peptide could have any efficacy in vivo and/or whether it sensitizes ovarian tumors to low, clinically relevant concentrations of cisplatin, four sets of nude mice (n=6 each) were subcutaneously injected with SKOV3 cells. Ten days later, when tumors were ˜250 mm^3 in volume, one group was treated with controls (i.e. DMSO delivered i.p. and scrambled peptide delivered directly into the tumors, i.t.), a second group was treated with cisplatin (5 mg/kg, delivered i.p.), a third group was treated with IRIS peptide (10 mg/kg, injected i.t.), and a fourth group was treated with both. Treatments were delivered every third day for a total of four times. For the next 16 days, tumors were measured daily with a caliper. Mice were then sacrificed, and their tumors or their remnants were taken.
Efficacy of BRCA1-IRIS inhibitory peptide, in vivo. Six to eight week old female athymic SCID mice were injected subcutaneously with 2.5×10^6 SKOV3 cells in the flank region. Their respective tumor growth was measured with a caliper. When the tumor volume reached 250 mm^3, mice were randomly grouped into four groups. One group (control) was treated with scrambled peptide (10 mg/kg) and DMSO. A second was treated with BRCA1-IRIS inhibitory peptide (10 mg/kg, body weight). […] Change in tumor volume was measured to monitor the efficacy of the treatment. […]

[5] = tested on: BRCA1-IRIS and survivin; experiment: IHC of SKOV3 tumors for BRCA1-IRIS and survivin; format: in vivo, mice; conditions: SKOV3 tumors after treatment
From the text: Isolated tumors were mounted, sectioned and IHC stained for BRCA1-IRIS and survivin. […] It is possible that SKOV3 contain a heterogeneous population of cells that differ in their BRCA1-IRIS expression and thus that the remaining tumors are from those expressing no or low BRCA1-IRIS.
Immunohistochemistry (IHC). Ovarian tissue microarrays comprised of normal, cancer and metastatic tissues were purchased from US Biomax, Inc. Paraffin-embedded tissue sections were de-waxed in xylene and rehydrated in alcohol. Antigen-retrieval for FOXO3a and survivin was performed by heating the slides in citrate buffer (10 μM, pH 6.0) using microwave for 10 minutes. Slides were then cooled to room temperature (RT) and washed with water followed by PBS for 15 minutes each. Antigen-retrieval for BRCA1-IRIS was performed by incubating the slides in pepsin (10 μM) for 20 minutes at 37° C. Endogenous peroxidase activity was suppressed by treating the slides with 3% hydrogen peroxide for 10 minutes. After washing steps slides were incubated for 1 hour at room temperature with antibodies to human FOXO3a (Cell Signaling Technology, USA 1:400) and survivin (Cell Signaling Technology, USA 1:400). For BRCA1-IRIS staining, slides were incubated overnight at 4° C. with monoclonal BRCA1-IRIS antibody at a 1:75 dilution. […]

For `N.N.[Cl][Pt][Cl]` [cisplatin], the IC50 ([1]; SKOV3, BRCA1-IRIS silencing (siRNA) 48 hours) was roughly 2.5 µM, the IC50 ([1]; SKOV3, ErbB2 inhibitor (CP-724714) 24 hours) was roughly 30 µM and the IC50 ([1]; SKOV3, IRIS peptide 24 hours) was roughly 7.5 µM. For the same compound, the IC50 ([1]; SKOV3, TrkB inhibitor (K252a) 24 hours) was roughly 50 µM, the IC50 ([1]; SKOV3, siErbB2 transfected 48 hours) was roughly 7.5 µM and the IC50 ([1]; SKOV3, siLuc transfected 48 hours) was greater than 50 µM. For the same compound, the IC50 ([1]; SKOV3, siTrkB transfected 48 hours) was roughly 20 µM, the IC50 ([1]; SKOV3, vehicle treated 24 hours) was greater than 50 µM and the “BRCA1-IRIS expression in HOSE cells” value [2] was “induced”. The “expression of BRCA1-IRIS, TrkB, ErbB2, AKT, p-AKT, p-FOXO, Cyclin D1, Bcl-2 and survivin” value [3] was “increased expression”, the “reduction in tumor size” value [4] was roughly 40% and the “BRCA1-IRIS and survivin staining of remaining tumor” value [5] was “increased IRIS and survivin expression”.
